Measurements taken from patent publication US10160753B2, “Indazole compounds as IRAK4 inhibitors” (Aurigene Discovery Technologies Limited, priority 2014, dated 2018).
Where a name gives a salt, the structure may show the parent alone.

biological target: T1, recombinant IRAK-4 kinase (Homo sapiens, UniProt Q9NWZ3); experiment: IRAK-4 Biochemical Assay (TR-FRET); settings: 30 min pre-incubation, 100 nM Biotin Histone H3, 20 μM ATP, read-out: IC50 values for IRAK4 activity
T1 construct: purchased Millipore, USA
T1 sequence (Q9NWZ3 1-460): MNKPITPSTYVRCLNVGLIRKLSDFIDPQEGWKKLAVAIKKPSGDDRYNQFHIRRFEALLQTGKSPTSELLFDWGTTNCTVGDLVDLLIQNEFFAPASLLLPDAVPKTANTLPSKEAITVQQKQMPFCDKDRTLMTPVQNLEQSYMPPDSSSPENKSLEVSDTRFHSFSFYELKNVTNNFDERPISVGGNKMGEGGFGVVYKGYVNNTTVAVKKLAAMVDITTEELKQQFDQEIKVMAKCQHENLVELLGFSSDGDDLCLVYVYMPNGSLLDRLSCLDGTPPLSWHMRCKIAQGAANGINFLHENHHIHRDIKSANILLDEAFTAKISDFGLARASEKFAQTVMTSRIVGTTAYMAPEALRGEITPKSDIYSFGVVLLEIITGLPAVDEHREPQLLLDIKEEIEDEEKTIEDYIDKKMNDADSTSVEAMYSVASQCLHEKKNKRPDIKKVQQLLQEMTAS

SMILES | IC50 [nM]
Cn1cc2cc(NC(=O)c3coc(N4CC[C@H](O)C4)n3)c(N3CCCCC3)cc2n1 [Example 52, (S)-2-(3-hydroxypyrrolidin-1-yl)-N-(2-methyl-6-(piperidin-1-yl)-2H-indazol-5-yl)oxazole-4-carboxamide] | < 50
Cc1ncccc1-c1nc(C(=O)Nc2cc3cn(C4CCCC4)nc3cc2C2CC2)co1 [Example 26, N-(2-cyclopentyl-6-cyclopropyl-2H-indazol-5-yl)-2-(2-methylpyridin-3-yl)oxazole-4-carboxamide] | < 50
C[C@H](O)Cn1cc(-c2cccc(C(=O)Nc3cc4cnn(C)c4cc3N3CCC(CO)CC3)n2)cn1 [Example 95, (S)—N-(6-(4-(hydroxymethyl)piperidin-1-yl)-1-methyl-1H-indazol-5-yl)-6-(1-(2-hydroxypropyl)-1H-pyrazol-4-yl)picolinamide] | > 100

The next lines start with the values.

IC50 [nM] | SMILES
< 50 | Cc1cc(-c2nc(C(=O)Nc3cc4cn(C)nc4cc3C3CC3)co2)ccn1 [Example 16, N-(6-cyclopropyl-2-methyl-2H-indazol-5-yl)-2-(2-methylpyridin-4-yl)oxazole-4-carboxamide hydrochloride]
< 50 | Cc1cc(-c2nc(C(=O)Nc3cc4c(C)nn(C)c4cc3N3CCC(F)CC3)co2)ccn1 [Example 87, N-(6-(4-fluoropiperidin-1-yl)-1,3-dimethyl-1H-indazol-5-yl)-2-(2-methylpyridin-4-yl)oxazole-4-carboxamide]
